Columns and labels:
HypX [1] = biological target: T1, HypX (Aquifex aeolicus, UniProt O67224); assay: X-ray crystallography, crystal soaking; format: binding; conditions: Form I crystals soaked with THF; N-terminal domain, chain A only
T1 construct: gene hoxX; residues up to 562 described; acid-denatured mass 67,531 Da; monomer; N-terminal domain 1-270, C-terminal domain 289-542

HypX [2] = biological target: T2, HypX (Aquifex aeolicus, UniProt O67224, A392F/I419F); assay: X-ray crystallography, crystal soaking; format: binding; conditions: CoA also bound, extended conformation; N-terminal region of cavity
T2 construct: gene hoxX; residues up to 562 described; acid-denatured mass 67,531 Da; monomer; N-terminal domain 1-270, C-terminal domain 289-542

HypX [3] = biological target: T1, HypX; assay: X-ray crystallography; native MS; format: binding; conditions: co-purified from E. coli, none added; non-covalent; folded conformation, C-terminal part of cavity; also Form II crystal 6J1E
HypX [4] = biological target: T3, HypX (Aquifex aeolicus, UniProt O67224, Q15A/R131A/S194A/Q195A/N306A/R542A); assay: native MS; format: binding; conditions: non-denaturing, 500 mM ammonium acetate pH 6.8; co-purified from E. coli; CoA absent in crystal structure 6J1H
T3 construct: gene hoxX; residues up to 562 described; acid-denatured mass 67,531 Da; monomer; N-terminal domain 1-270, C-terminal domain 289-542

HypX [5] = biological target: T4, HypX (Aquifex aeolicus, UniProt O67224, R9A/Q15A/R131A/R542A); assay: X-ray crystallography; format: binding; conditions: co-purified from E. coli; folded conformation
T4 construct: gene hoxX; residues up to 562 described; acid-denatured mass 67,531 Da; monomer; N-terminal domain 1-270, C-terminal domain 289-542

HypX [6] = biological target: T2, HypX; assay: X-ray crystallography; format: binding; conditions: co-purified from E. coli; extended conformation, without THF (THF-bound structure 6J1J also holds CoA)
[7] = biological target: HypC/HypD complex (A. aeolicus) (Aquifex aeolicus) (UniProt O67225); assay: SEC; Superdex200 10/300GL, 50 mM Tris-HCl (pH 8.0), 200 mM NaCl, 1 mM DTT; HypC, HypD and HypX mixed in equal molar amount; apparent mass
[8] = biological target: A. aeolicus HypC (Aquifex aeolicus); assay: SEC; Superdex75 10/300GL, 50 mM Tris-HCl (pH 8.0), 200 mM NaCl, 1 mM DTT; HypC alone, HypD alone, and HypC and HypD mixed in equal molar amount; apparent masses

T1 sequence (O67224 entry or part of it): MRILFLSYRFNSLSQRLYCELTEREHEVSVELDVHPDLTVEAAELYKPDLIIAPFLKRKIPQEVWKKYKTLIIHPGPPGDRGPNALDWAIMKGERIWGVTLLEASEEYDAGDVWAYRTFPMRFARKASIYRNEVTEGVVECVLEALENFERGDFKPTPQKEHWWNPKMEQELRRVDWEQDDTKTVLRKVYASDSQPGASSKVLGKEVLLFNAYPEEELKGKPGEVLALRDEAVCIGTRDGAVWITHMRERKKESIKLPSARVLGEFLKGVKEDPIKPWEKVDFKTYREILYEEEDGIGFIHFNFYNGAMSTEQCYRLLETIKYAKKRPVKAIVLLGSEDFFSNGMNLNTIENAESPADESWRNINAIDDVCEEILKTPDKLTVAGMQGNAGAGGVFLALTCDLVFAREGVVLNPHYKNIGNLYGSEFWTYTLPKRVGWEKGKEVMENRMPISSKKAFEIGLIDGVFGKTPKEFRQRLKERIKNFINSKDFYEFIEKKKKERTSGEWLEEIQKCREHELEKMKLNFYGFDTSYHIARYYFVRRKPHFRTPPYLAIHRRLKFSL
T2 sequence (O67224 entry or part of it A392F/I419F): as the sequence (O67224 entry or part of it) above, with A392F, I419F counted along it
T3 sequence (O67224 entry or part of it Q15A/R131A/S194A/Q195A/N306A/R542A): as the sequence (O67224 entry or part of it) above, with Q15A, R131A, S194A, Q195A, N306A, R542A counted along it
T4 sequence (O67224 entry or part of it R9A/Q15A/R131A/R542A): as the sequence (O67224 entry or part of it) above, with R9A, Q15A, R131A, R542A counted along it

Nc1nc2c(c(=O)[nH]1)N[C@@H](CNc1ccc(C(=O)N[C@@H](CCC(=O)O)C(=O)O)cc1)CN2 [THF]
X-ray crystallography, crystal soaking (HypX [1]): We obtained HypX-THF complex by soaking Form I HypX crystals with THF | X-ray crystallography, crystal soaking (HypX [2]): THF is bound at the N-terminal region of the cavity at the same position

CC(C)(COP(=O)(O)OP(=O)(O)OC[C@H]1O[C@@H](n2cnc3c(N)ncnc32)[C@H](O)[C@@H]1OP(=O)(O)O)[C@@H](O)C(=O)NCCC(=O)NCCS [CoA]
X-ray crystallography; native MS (HypX [3]): HypX binds CoA constitutively with a high binding affinity | native MS (HypX [4]): showed two MS peaks due to apo (CoA-free) and holo (CoA-bound) form | X-ray crystallography (HypX [5]): this variant binds CoA with the folded conformation as is the case of wild-type | X-ray crystallography (HypX [6]): CoA is able to adopt the extended conformation in the A392F-I419F variant

HypX from Aquifex aeolicus (enzyme)
stoichiometry N [7]: 1

A. aeolicus HypC (natural protein)
stoichiometry N [8]: 2

Source: paper PMC6802093, “Structural characterization of HypX responsible for CO biosynthesis in the maturation of NiFe-hydrogenase” (Communications Biology, 2019)
